Assay results published in US6403807B1, “Bridged fluorescent dyes, their preparation and their use in assays” (SurroMed, Inc., priority 1999, dated 2002).

What was measured:
[1] = Fluorescence measurements (excitation/emission) of the dyes; format: physicochemical
Method: (§1) UV-Visible absorption spectra were recorded on Shimadzu UV-2401PC Spectrophotometer, while fluorescence measurements were performed Spex-Fluorlog2 Fluorometer (Instrument S.A. Inc.).
(§2) The spectral properties of the dyes of the previous Examples were measured. […] Other materials absorbed at the […] krypton laser wavelength.

[2] = UV-Visible absorption spectra of the dyes; format: physicochemical
Method: as §1, §2

CC1(C)C2=[N+](CCCCCC(=O)Nc3cc(cc(C(=O)O)c3)NC(=O)CCCCCN3/C(=C/C=C/C=C/2)C(C)(C)c2cc(S(=O)(=O)O)ccc23)c2ccc(S(=O)(=O)[O-])cc21 [Dye 16, Bridged Pentamethine Indoleninium Cyanine Dye]
δem (emission wavelength) ([1]; PBS): 674 nm | δex (excitation wavelength) ([1]; PBS): 648 nm | e (extinction coefficient at δmax) ([2]; PBS buffer): 250,000 | δmax (absorption maximum) ([2]; PBS buffer): 648 nm

CC1(C)C2=[N+](CCCCCC(=O)Nc3cc(cc(C(=O)O)c3)NC(=O)CCCCCN3/C(=C/C=C/C=C/C=C/2)C(C)(C)c2cc(S(=O)(=O)O)ccc23)c2ccc(S(=O)(=O)[O-])cc21 [Dye 17, Bridged Heptamethine Indoleninium Cyanine Dye]
δem (emission wavelength) ([1]; PBS): 780 nm | δex (excitation wavelength) ([1]; PBS): 748 nm | δmax (absorption maximum) ([2]; PBS buffer): 748 nm

CC1(C)C2=[N+](CCCCCCCCCCCCN3/C(=C/C=C/C=C/2)C(C)(C)c2ccccc23)c2ccccc21.[Br-] [Dye 19]
δem (emission wavelength) ([1]; CH2Cl2): 674 nm | δmax (absorption maximum) ([2]; CH2Cl2): 656 nm

CC1(C)C2=[N+](CCCCCCCCCCCCN3/C(=C/C4=C([O-])C(=C/2)/C4=O)C(C)(C)c2ccccc23)c2ccccc21 [Dye 20, Dodecanyl Bridged Indoleninium Squaraine Dye]
δmax (absorption maximum) ([2]; CH2Cl2): 648 nm

CC1(C)C2=[N+](CCCCCCCCCCCCN3/C(=C/C=C/C=C/C=C/2)C(C)(C)c2ccccc23)c2ccccc21.[Br-] [Dye 21, Dodecanyl Bridged Indoleninium Heptamethine Cyanine Dye]
δem (emission wavelength) ([1]; CH2Cl2): 790 nm | δmax (absorption maximum) ([2]; CH2Cl2): 760 nm

CC1(C)C2=[N+](CCCCCCCCCCCCN3/C(=C/C=C/C=C/2)C(C)(C)c2c3ccc3ccccc23)c2ccc3ccccc3c21.[Br-] [Dye 23, Dodecanyl Bridged Benzindoleninium Pentamethine Cyanine dye]
δem (emission wavelength) ([1]; CH2Cl2): 716 nm | δmax (absorption maximum) ([2]; CH2Cl2): 696 nm

CC1(C)C2=[N+](CCCCCCCCCCCCN3/C(=C/C4=C([O-])C(=C/2)/C4=O)C(C)(C)c2c3ccc3ccccc23)c2ccc3ccccc3c21 [Dye 24, Dodecanyl Bridged Benzindoleninium Squaraine Dye]
δem (emission wavelength) ([1]; CH2Cl2): 681 nm | δmax (absorption maximum) ([2]; CH2Cl2): 671 nm

CC1(C)C2=[N+](CCCCCCCCCCCCN3/C(=C/C=C/C=C/C=C/2)C(C)(C)c2c3ccc3ccccc23)c2ccc3ccccc3c21 [Dye 25, Dodecanyl Bridged Benzindoleninium Heptamethine Dye]
δem (emission wavelength) ([1]; CH2Cl2): 820 nm | δmax (absorption maximum) ([2]; CH2Cl2): 800 nm

CC1(C)C2=[N+](CCCCCC(=O)Nc3cc(cc(C(=O)O)c3)NC(=O)CCCCCN3/C(=C/C=C/2)C(C)(C)c2cc(S(=O)(=O)[O-])ccc23)c2ccc(S(=O)(=O)O)cc21 [Dye 27, Bridged Trimethine Indolenium Cyanine Dye]
δmax (absorption maximum) ([2]; solvent not stated): 563 nm

CC1(C)C2=CC3=C(S)/C(=C\C4=[N+](CCCCCC(=O)Nc5cc(cc(C(=O)O)c5)NC(=O)CCCCCN2c2ccc(S(=O)(=O)O)cc21)c1ccc(S(=O)(=O)[O-])cc1C4(C)C)C3=S [Dye 28, Bridged Thiosquarylium Dye]
δmax (absorption maximum) ([2]; solvent not stated): 649 nm
